Results from patent publication US7928135B2, “Benzene, pyridine, and pyridazine derivatives” (Serenex, Inc., priority 2005, dated 2011).

Assays:
PC-3 cell proliferation = assay: Cell proliferation assay (WST-1), PC-3; type: cell-based; conditions: Homo sapiens; PC-3 cells, WST-1 readout; read-out: inhibitory activity against PC-3 cell proliferation (IC50 range)
Description: A panel of cancer cell lines was obtained from the DCTP Tumor Repository, National Cancer Institute (Frederick, Md.) or ATCC (Rockville, Md.). Cell cultures were maintained in Hyclone RPMI 1640 medium (Logan, Utah) supplemented with 10% fetal bovine serum and 20 mM HEPES buffer, final pH 7.2, at 37° C. with a 5% CO2 atmosphere. Cultures were maintained at sub-confluent densities. Human umbilical vein endothelial cells (HUVEC) were purchased from Clonetics, a division of Cambrex (Walkersville, Md.). Cultures were established from cryopreserved stocks using Clonetics EGM-2 medium supplemented with 20 mM HEPES, final pH 7.2, at 37° C. with a 5% CO2 atmosphere.
For proliferation assays, cells were seeded with the appropriate medium into 96 well plates at 1,000-2,500 cells per well, depending on the cell line, and were incubated overnight. The following day, test compound, DMSO solution (negative control), or Actinomycin D (positive control) was added to the appropriate wells as 10× concentrated stocks prepared in phosphate buffered saline. The cell plates were then incubated for an additional 2-5 days, depending on the cell line, to allow proliferation to occur. To measure cell density, 50 μL of WST-1 solution (Roche Applied Science, Ind.) diluted 1:5 in phosphate buffered saline was added to each well, and the cells incubated for an additional 1-5 hrs., again depending on the cell line. Optical density was determined for each well at […] using a Tecan GeniosPro plate reader (RTP, NC). The percentage of cell growth was determined by comparing the cell growth in the presence of test compounds to the cells treated with DMSO vehicle (control, 100% growth) and cells treated with Actinomycin D (10 μM, 0% growth). […]

[1] = system: HSP-90 (heat shock protein 90); assay: Determination of affinity for HSP-90 (elution from purine affinity column, SDS-PAGE densitometry); type: binding; design: key: +++: very high; ++: high; +: moderate; conditions: elution of HSP-90 from purine affinity column with 20, 100 and 500 μM test compound
Description: Affinity of test compounds for HSP-90 was determined as follows: Protein mixtures obtained from a variety of organ tissues (for example: spleen, liver and lung) were reversibly bound to a purine affinity column to capture purine-binding proteins, especially HSP-90. The purine affinity column was washed several times, and then eluted with 20 μM, 100 μM, and 500 μM of test compound. Compounds of Formula I elute HP-90 in a dose-dependent manner vs. a control elution using dimethylsulfoxide. The elution profile of Formula I compounds was determined by 1-dimensional SDS polyacrylamide gel electrophoresis. Gels were stained with a fluorescent stain such as sypro ruby (a highly sensitive fluorescent protein stain that can readily detect less than 1 fmol of total protein, i.e., less than 0.04 ng for a 40 kDa protein) or silver nitrate. The gels were imaged using a standard flat bed gel imager and the amount of protein estimated by densitometry. The percent of HSP-90 protein eluted from the column at each concentration was determined and IC50 values were calculated from these estimates. The identity of a band containing HSP-90 was determined by protein sequencing using mass spectroscopy.
Compounds of the invention are inhibitors of HSP-90 (heat shock protein 90). Several exemplary compounds useful in the methods of the invention are listed below.

SMILES | IC50 (PC-3 cell proliferation) | relative binding affinity to HSP-90 [1]
C=CCNc1cc(-n2c(C)c(C)c3c2CCCC3=O)ccc1C(N)=O [Compound 91, 2-(allylamino)-4-(2,3-dimethyl-4-oxo-4,5,6,7-tetrahydro-1H-indol-1-yl)benzamide] | – | ++
C#Cc1cccc(Nc2cc(-n3c(C)cc4c3CC(C)(C)CC4=O)ccc2C(N)=O)c1 [Compound 72, 2-[(3-ethynylphenyl)amino]-4-(2,6,6-trimethyl-4-oxo-4,5,6,7-tetrahydro-1H-indol-1-yl)benzamide] | 500 to 5000 nM | –
CC1(C)CC(=O)c2c(-c3ccccc3)cn(-c3ccc(C(N)=O)cc3)c2C1 [Compound 110, 4-(6,6-dimethyl-4-oxo-3-phenyl-4,5,6,7-tetrahydro-1H-indol-1-yl)benzamide] | 5000 to 50000 nM | –
Cc1cc(Nc2cc(-n3c(C)cc4c3CC(C)(C)CC4=O)ccc2C(N)=O)no1 [Compound 84, 2-[(5-methylisoxazol-3-yl)amino]-4-(2,6,6-trimethyl-4-oxo-4,5,6,7-tetrahydro-1H-indol-1-yl)benzamide] | 500 to 5000 nM | –
Cc1cc2c(n1-c1ccc(C(N)=O)c(Nc3ccc(O)cc3)c1)CC(C)(C)CC2=O [Compound 82, 2-[(4-hydroxyphenyl)amino]-4-(2,6,6-trimethyl-4-oxo-4,5,6,7-tetrahydro-1H-indol-1-yl)benzamide] | 500 to 5000 nM | –
Cc1cc2c(n1-c1ccc(C(N)=O)c(Nc3ccccc3)c1)CCCC2=O [Compound 74, 2-anilino-4-(2-methyl-4-oxo-4,5,6,7-tetrahydro-1H-indol-1-yl)benzamide] | 5000 to 50000 nM | –
Cc1cn(-c2ccc(C(N)=O)c(Nc3ccnc(OCCN(C)C)c3)c2)c2c1C(=O)CC(C)(C)C2 [Compound 108, 2-({2-[2-(dimethylamino)ethoxy]pyridin-4-yl}amino)-4-(3,6,6-trimethyl-4-oxo-4,5,6,7-tetrahydro-1H-indol-1-yl)benzamide] | < 500 nM | –
Cc1cn(-c2ccc(C(N)=O)c(Nc3ccncc3)c2)c2c1C(=O)CC(C)(C)C2 [Compound 97, 2-(pyridin-4-ylamino)-4-(3,6,6-trimethyl-4-oxo-4,5,6,7-tetrahydro-1H-indol-1-yl)benzamide] | < 500 nM | –
COc1ccc(Nc2cc(-n3c(C)cc4c3CC(C)(C)CC4=O)ccc2C(N)=O)cc1OCCCN(C)C [Compound 93, 2-({3-[3-(dimethylamino)propoxy]-4-methoxyphenyl}amino)-4-(2,6,6-trimethyl-4-oxo-4,5,6,7-tetrahydro-1H-indol-1-yl)benzamide] | 500 to 5000 nM | –
COc1cc(Nc2cc(-n3c(C)c(Cl)c4c3CC(C)(C)CC4=O)ccc2C(N)=O)cc(OC)c1OC [Compound 81, 4-(3-chloro-2,6,6-trimethyl-4-oxo-4,5,6,7-tetrahydro-1H-indol-1-yl)-2-[(3,4,5-trimethoxyphenyl)amino]benzamide] | < 500 nM | –
CC1(C)CC(=O)c2c(C(F)(F)F)nn(-c3ccc(C(N)=O)c(NC4CCSCC4)c3)c2C1 [Compound 31, 4-(6,6-Dimethyl-4-oxo-3-trifluoromethyl-4,5,6,7-tetrahydro-indazol-1-yl)-2-(tetrahydro-thiopyran-4-ylamino)-benzamide] | < 500 nM | –
COc1ccc(Nc2cc(-n3cc(C)c4c3CC(C)(C)CC4=O)ccc2C(N)=O)cc1OCCN(C)C [Compound 104, 2-({3-[2-(dimethylamino)ethoxy]-4-methoxyphenyl}amino)-4-(3,6,6-trimethyl-4-oxo-4,5,6,7-tetrahydro-1H-indol-1-yl)benzamide] | < 500 nM | –

The next lines start with the values.

IC50 (PC-3 cell proliferation) | relative binding affinity to HSP-90 [1] | SMILES
< 500 nM | – | Cc1nn(-c2ccc(C(N)=O)c(NCCS(C)(=O)=O)c2)c2c1C(=O)CC(C)(C)C2 [Compound 113, 2-{[2-(methylsulfonyl)ethyl]amino}-4-(3,6,6-trimethyl-4-oxo-4,5,6,7-tetrahydro-1H-indazol-1-yl)benzamide]
500 to 5000 nM | – | Cc1nn(-c2ccc(C(N)=O)c(Nc3cccc([S+](C)[O-])c3)c2)c2c1C(=O)CC(C)(C)C2 (stereo not drawn) [Compound 123, 2-{[3-(methylsulfinyl)phenyl]amino}-4-(3,6,6-trimethyl-4-oxo-4,5,6,7-tetrahydro-1H-indazol-1-yl)benzamide]
< 500 nM | – | CC1(C)CC(=O)c2c(C(F)(F)F)nn(-c3ccc(C(N)=O)c(NC4CCN(S(C)(=O)=O)CC4)c3)c2C1 [Compound 124, 4-[6,6-dimethyl-4-oxo-3-(trifluoromethyl)-4,5,6,7-tetrahydro-1H-indazol-1-yl]-2-{[1-(methylsulfonyl)piperidin-4-yl]amino}benzamide]
500 to 5000 nM | – | COCC(=O)Nc1cc(-n2cc(C)c3c2CC(C)(C)CC3=O)ccc1C(N)=O [Compound 101, 2-[(methoxyacetyl)amino]-4-(3,6,6-trimethyl-4-oxo-4,5,6,7-tetrahydro-1H-indol-1-yl)benzamide]
500 to 5000 nM | – | Cc1nn(-c2ccc(C(N)=O)c(NC3CCN(C(=O)CN)CC3)c2)c2c1C(=O)CC(C)(C)C2 [Compound 129, 2-[(1-glycylpiperidin-4-yl)amino]-4-(3,6,6-trimethyl-4-oxo-4,5,6,7-tetrahydro-1H-indazol-1-yl)benzamide]
< 500 nM | – | COc1ccc(Nc2cc(-n3nc(C)c4c3CC(C)(C)CC4=O)ccc2C(N)=O)cc1OCCN(C)C [Compound 27, 2-[3-(2-Dimethylamino-ethoxy)-4-methoxy-phenylamino]-4-(3,6,6-trimethyl-4-oxo-4,5,6,7-tetrahydro-indazol-1-yl)-benzamide]
5000 to 50000 nM | – | Cc1cn(-c2ccc(C(N)=O)c(NCCNC(=O)CO)c2)c2c1C(=O)CC(C)(C)C2 [Compound 112, 2-{[2-(glycoloylamino)ethyl]amino}-4-(3,6,6-trimethyl-4-oxo-4,5,6,7-tetrahydro-1H-indol-1-yl)benzamide]
< 500 nM | – | CC1(C)CC(=O)c2c(C(F)F)nn(-c3ccc(C(N)=O)c(NC4CC=CC4)c3)c2C1 [Compound 116, 2-(cyclopent-3-en-1-ylamino)-4-[3-(difluoromethyl)-6,6-dimethyl-4-oxo-4,5,6,7-tetrahydro-1H-indazol-1-yl]benzamide]
< 500 nM | – | Cc1nn(-c2ccc(C(N)=O)c(NCC3CC3)c2)c2c1C(=O)CC(C)(C)C2 [Compound 100, 2-[(cyclopropylmethyl)amino]-4-(3,6,6-trimethyl-4-oxo-4,5,6,7-tetrahydro-1H-indazol-1-yl)benzamide]
500 to 5000 nM | – | COCCNc1cc(-n2cc(C)c3c2CC(C)(C)CC3=O)ccc1C(N)=O [Compound 5, 2-(2-Methoxy-ethylamino)-4-(3,6,6-trimethyl-4-oxo-4,5,6,7-tetrahydro-indol-1-yl)-benzamide]
< 500 nM | – | COc1cc(Nc2cc(-n3nc(C)c4c3CC(C)(C)CC4=O)ccc2C(N)=O)cc(OC)c1OC [Compound 19, 4-(6,6-Dimethyl-4-oxo-3-methyl-4,5,6,7-tetrahydro-indazol-1-yl)-2-(3,4,5-trimethoxyanilino)-benzamide]
< 500 nM | – | COc1ccc(Nc2cc(-n3nc(C)c4c3CC(C)(C)CC4=O)ccc2C(N)=O)cc1 [Compound 114, 2-[(4-methoxyphenyl)amino]-4-(3,6,6-trimethyl-4-oxo-4,5,6,7-tetrahydro-1H-indazol-1-yl)benzamide]
500 to 5000 nM | – | Cc1nn(-c2ccc(C(N)=O)c(N[C@H](C)c3ccccc3)c2)c2c1C(=O)CC(C)(C)C2 [Compound 106, 2-{[(1R)-1-phenylethyl]amino}-4-(3,6,6-trimethyl-4-oxo-4,5,6,7-tetrahydro-1H-indazol-1-yl)benzamide]
500 to 5000 nM | – | CN(C)S(=O)(=O)CCNc1cc(-n2nc(C(F)(F)F)c3c2CC(C)(C)CC3=O)ccc1C(N)=O [Compound 136, 2-({2-[(dimethylamino)sulfonyl]ethyl}amino)-4-[6,6-dimethyl-4-oxo-3-(trifluoromethyl)-4,5,6,7-tetrahydro-1H-indazol-1-yl]benzamide]
< 500 nM | – | Cc1nn(-c2ccc(C(N)=O)c(NC3CCN(C(=O)CCN4CCOCC4)CC3)c2)c2c1C(=O)CC(C)(C)C2 [Compound 127, 2-{[1-(3-morpholin-4-ylpropanoyl)piperidin-4-yl]amino}-4-(3,6,6-trimethyl-4-oxo-4,5,6,7-tetrahydro-1H-indazol-1-yl)benzamide]
